Assay results from patent US20220380310A1, “P2X7R ANTAGONISTS” (priority 2019, published 2022).

Legend:
P2X2R = target: T1, P2X2R (Homo sapiens, UniProt Q9UBL9); assay: Receptor-mediated calcium entrance assay (Calcium Assay), P2X2R; type: cell-based; details: compound at 5 μM, read-out: Percentage of activity remains in the presence of the compound at 5 μM, P2X2R (Calcium Assay)
T1 construct: expressed in transfected cells; host or cells: HEK-293
T1 sequence (Q9UBL9 1-471): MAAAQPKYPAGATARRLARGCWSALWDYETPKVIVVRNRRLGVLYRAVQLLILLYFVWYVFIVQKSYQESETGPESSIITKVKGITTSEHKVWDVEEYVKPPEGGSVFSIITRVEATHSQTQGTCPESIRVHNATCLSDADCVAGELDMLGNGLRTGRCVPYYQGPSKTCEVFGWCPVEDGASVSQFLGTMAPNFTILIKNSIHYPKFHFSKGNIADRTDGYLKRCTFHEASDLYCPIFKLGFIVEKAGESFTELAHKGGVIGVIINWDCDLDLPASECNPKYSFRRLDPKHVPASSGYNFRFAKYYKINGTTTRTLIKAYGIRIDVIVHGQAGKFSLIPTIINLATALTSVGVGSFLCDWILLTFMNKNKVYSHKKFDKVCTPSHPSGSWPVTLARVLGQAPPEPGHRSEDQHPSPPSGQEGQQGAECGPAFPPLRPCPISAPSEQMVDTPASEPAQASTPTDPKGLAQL

[1] = target: T2, Human P2X4 receptor (P2X4R) (Homo sapiens, UniProt Q99571); assay: Receptor-mediated calcium entrance assay (Calcium Assay), P2X4R transfected HEK-293 cells; type: cell-based; details: HEK293, compound at 5 μM, 1 mM ATP stimulus, read-out: Percentage of activity remains in the presence of the compound at 5 μM, P2X4R (Calcium Assay)
T2 construct: expressed in transfected cells; host or cells: HEK-293
T2 sequence (Q99571 1-388): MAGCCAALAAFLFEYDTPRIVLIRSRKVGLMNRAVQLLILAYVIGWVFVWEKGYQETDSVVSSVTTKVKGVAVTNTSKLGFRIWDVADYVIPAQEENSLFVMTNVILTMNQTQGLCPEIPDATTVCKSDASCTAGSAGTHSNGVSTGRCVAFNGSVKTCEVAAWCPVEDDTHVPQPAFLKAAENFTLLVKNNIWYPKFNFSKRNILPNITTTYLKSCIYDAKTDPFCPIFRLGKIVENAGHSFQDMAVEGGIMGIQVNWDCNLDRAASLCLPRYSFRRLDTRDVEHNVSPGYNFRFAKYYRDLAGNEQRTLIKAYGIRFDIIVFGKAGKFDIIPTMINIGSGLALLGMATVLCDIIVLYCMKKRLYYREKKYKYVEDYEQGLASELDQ
Excerpt: Human P2X1 receptor (P2X1R) is a member of P2X family. […] Thus, the calcium assay was used. In the calcium assay, P2X receptor activation leads to opening of ion channels, which increases intracellular calcium concentration. The increased intracellular calcium concentration can be detected by a calcium indicator dye such as Fluo-4 or Fluo-8. Molecular Probes™ Fluo-4, AM (Cat. No. F14201 from Fisher Scientific) was used in the assay. The procedures were similar as described in the Yo-Pro-1 assay until day 4. The construct of P2X1R for transient transfection to HEK-293 cells was the courtesy from Dr. Richard J. Evans laboratory (J. Biol. Chem. 279:9043-9055). After transfection and expression, on day 4 cells were washed twice by Ca-HBSS (The composition (in mM) was NaCl 135, HEPES 10, D-glucose 10, KCl 5.4, CaCl2 2, and MgCl2 1, pH to 7.4 by NaOH) and incubated in dye loading solution (The solution contained 2.5 μM Fluo-4, 1 mM probenecid, and 1× PowerLoad (Cat. No. P10020 from Fisher Scientific) in Ca-HBSS) for 70 minutes at 37° C. Then the extracellular loading dye was washed away and cells were incubated at Ca-HBSS containing 1 mM probenecid for 30 minutes. Before the final steps, probenecid was washed away with Ca-HBSS. The assay was performed by adding 25 μl of Ca-HBSS followed by 25 μl of various test compounds. At this point, the base level of fluorescence was obtained through the microplate reading—the base microplate reading for this assay. At the end, the stimulus (ATP at 20 μM was the final concentration for P2X1R) was added to activate the P2X1R. Activation of P2X1R opened the channel to allow influx of calcium, which was represented by fluorescence increases that were measured by the microplate device with excitation at 475 nm and emission wavelength in the range of 500-550 nm. The data were analyzed the same way as described before: The result of each well was first normalized by its corresponding base microplate reading. Then, the negative control signal was subtracted from. In the negative control, the test compound and the stimulus were replaced by Ca-HBSS. […] An average of six highest values of the plate (AVG) were considered as 100% and the value of each well was divided by AVG and presented as the relative values in percentages.
Human P2X4 receptor (P2X4R) construct (J. Biol. Chem. 290, 7930-7942) was transiently transfected to HEK-293 cells and the calcium assay was performed as described above. When 1 mM ATP was used as stimulus, an increased receptor mediated activity leading to intracellular calcium elevation can be seen in less than 10 minutes.

| SMILES | remaining activity at 5 µM (P2X2R) [%] | remaining activity at 5 µM [1] [%] |
| --- | --- | --- |
| O=C(CCc1ccccc1)NC1CCCN(S(=O)(=O)c2ccc(OCc3ccccc3)cc2)C1 (stereo not shown) [#4] | 83.7 | 56.9 |
| O=C(CCc1ccccc1)NC1CCCN(c2ccc(S(=O)(=O)NC3CCCCC3)cc2)C1 (stereo not shown) [#51] | 81.2 | 71.3 |
| CC(C)COc1ccc(S(=O)(=O)N2CCCC(NC(=O)CCc3ccccc3)C2)cc1 (stereo not shown) [#6] | 55.2 | 98.9 |
| NC(=O)c1cc(Br)cc(N2CCOCC2)c1 [#28] | 50.7 | 85.4 |
| O=C(CCc1ccccc1)NC1CCCN(c2ccc(S(=O)(=O)NCc3ccco3)cc2)C1 (stereo not shown) [#52] | 72.3 | 52.8 |

Second part, the molecule after the results:

| remaining activity at 5 µM (P2X2R) [%] | remaining activity at 5 µM [1] [%] | SMILES |
| --- | --- | --- |
| 70 | 61 | O=C(NCCc1ccccc1)C1CCCN(S(=O)(=O)c2ccc(N3CCCC3)cc2)C1 (stereo not shown) [#25] |
| 47.8 | 91 | O=C(CCc1ccccc1)N1CCN(S(=O)(=O)c2ccc(N3CCOCC3)cc2)CC1 [#32] |
| 52.7 | 37.7 | O=C(CCc1ccccc1)NC1CCCN(c2ccc(S(=O)(=O)N3CCCC3)cc2)C1 (stereo not shown) [#55] |
| 65.6 | 93.3 | CC1CCCCN1c1ccc(S(=O)(=O)N2CCCC(NC(=O)CCc3ccccc3)C2)cc1 (stereo not shown) [#47] |
| 57.7 | 70.7 | O=C(NCCc1ccccc1)C1CCN(S(=O)(=O)c2ccc(N3CCOCC3)cc2)CC1 [#23] |
| 73.1 | 61.6 | CN1CCN(c2ccc(S(=O)(=O)N3CCCC(NC(=O)CCc4ccccc4)C3)cc2)CC1 (stereo not shown) [#18] |
